Values quoted from earlier work as cited in patent US10398709B2, “Compositions for the treatment of cataracts” (Catacore, Inc., priority 2015, dated 2019).

How the values were obtained:
[1] = system: preformed protein aggregates (mutant crystallins); details: both in vitro and in cell-transfection experiments
cataract = details: in vivo in dogs
[2] = system: dissected rabbit cataractous lenses; details: dissected rabbit cataractous lenses in vitro

CC(C)CCC[C@@H](C)[C@H]1CC[C@H]2[C@@H]3CC=C4C[C@@H](O)CC[C@]4(C)[C@H]3CC[C@]12C [cholesterol]
preformed protein aggregates [1]: not

CC(C)=CCC[C@@H](C)[C@H]1CC[C@@]2(C)C3=C(CC[C@]12C)[C@@]1(C)CC[C@H](O)C(C)(C)[C@@H]1CC3 [lanosterol, 3β-hydroxy-8,24-lanostadiene]
cataract severity (cataract): reduce cataract severity | preformed protein aggregates [1]: significantly decreased | cataract severity and transparency [2]: reduce cataract severity and increase transparency
